Reference: patent US7579432B2, “Cyclic peptides as G-protein-coupled receptor antagonists” (Promics Pty Limited, priority 2001, dated 2009)

What was measured:
gut ischemia-reperfusion = experiment: Intestinal ischemia-reperfusion injury in rats
Protocol: Female Wistar rats (250-300 g, n=132) were fasted and given only water for 12 h prior to all experiments. Animals were anaesthetised by the intraperitoneal injection of 80 mg kg^−1 ketamine and 10 mg kg^−1 xylazine and throughout the procedure rats were placed on a heating pad to maintain normal body temperature. […] A non-traumatic occlusive device for the artery was fashioned from a silk suture looped though a length of polyethylene tubing. The SMA was occluded by applying traction to the ends of the loop. […] (1) in 5% ethanol or sterile, pyrogen-free saline in 0-2 ml volume. Infusions were made over a 2 min period. […] (1) (0.3, 1, 10 mg kg^−1) was achieved by gavage (0.2 ml saline in 25% ethanol) 60 min prior to SMA occlusion. Intestinal ischemia was induced by clamping the SMA for 30 min, after which the occlusive suture was removed, then reperfusion was monitored for another 120 min. Sham-operated rats were treated in an identical fashion, with the omission of vascular occlusion, and were infused with 0.2 ml of sterile, pyrogen-free saline or gavaged with 0.2 ml of saline in 25% ethanol. Blood samples (50 μL) were collected into heparinised Eppendorf tubes at regular intervals over the 180 min duration of the experiments for the estimation of PMN numbers. In a different series of identical experiments, whole blood was collected at regular intervals over the 180 min and allowed to clot on ice, and serum or plasma samples collected and stored at −20° C. for later measurement of tumour necrosis factor-α (TNF-α), haptoglobin (Hp) and aspartate aminotransferase (AST) concentrations. At the end of the 120 min reperfusion period, the animals were euthanased with an overdose of pentobarbital A section of the occluded ileum was removed, the lumen rinsed with saline, and the intestine was blotted dry, then weighed. Specimens were dried in an oven for 24 hours at 80° C. to obtain the tissue dry weight. Intestinal oedema was determined by assessing the wet and dry tissue weight ratio. Additionally, segments of both ischaemic and normal intestine were harvested and rinsed with saline and immediately fixed in 10% buffered formaldehyde-saline for histological studies.
Blood (50 μL) for PMN counts was placed into heparinised tubes and then layered over an equal volume of Histopaque 1083 (Sigma, U.S.A.), PMNs were isolated and cell number counted on a haemocytometer. Concentrations of PMN's values are presented as mean percentage±SEM of the values obtained immediately prior to SMA occlusion.
Serum TNF-α concentrations were measured using an enzyme-linked immunosorbent assay, (OptEIA, Pharmingen, USA), according to the manufacturers instructions. Concentrations of TNF-α in serum samples were determined by linear regression analysis from the standard curve.
Plasma AST (AST/GOT; Sigma, USA) concentrations were measured according to manufacturers instructions within 48 h of collecting plasma. Plasma AST concentrations were derived from calibration curve. Results are expressed in Sigma-Franke (SF) units/ml.
Specimens were fixed in 10% formaldehyde-saline, embedded in paraffin wax, sectioned serially, and stained with haematoxylin and eosin. Tissues were read and scored by a trained observer in a blinded fashion. The degree of intestinal tissue injury was determined using a previously described graded scale ranging from 0-8 (Chiu et al., 1970).

[1] = system: antigen-induced arthritis; experiment: Rat monoarticular antigen-induced arthritis; assay type: in vivo
Protocol: Female Wistar rats (150-250 g) were obtained from the Central Animal Breeding House, University of Queensland. […] Each rat received a subcutaneous injection of this suspension (0.5 mL) on days 1 and 7. On day 12-28, rats were separated into separate cages, and body weight and food and water intake monitored daily. Rats received either ordinary tap water or drinking water containing AcF-[OPdChaWR] (1). […] Rats were euthanased on day 28, and whole blood collected into an Eppendorf tube and allowed to clot on ice. Blood samples were centrifuges (11,000 rpm×3 min) and serum collected and stored at −20° C. until analysis of serum cytokines using an ELISA. Each knee capsule was lavaged with 100 μL saline, and the total cell count determined using a haemocytometer. In addition, an aliquot of the knee joint lavage fluid was dropped onto a glass slide, and allowed to air dry. Once dry, cells were stained with a differential stain (Diff Quick) and a differential cell count was performed using a 40× dry lens microscope. The remaining lavage fluids from each joint were stored at −20° C. until later analysis of intra-articular cytokine levels using an ELISA. Each knee joint was removed and the skin was split with a scalpel blade to allow fixation. Knee samples were stored in 10% buffered formalin for≧10 d. Knees were then rinsed with distilled water and placed in a saturated solution of EDTA solution for 21 d for decalcification before being embedded in paraffin wax. Knee tissue samples were prepared using standard histological techniques as described above in Example 6 and stained using an heamotoxylin and eosin stain. Histological slides were analysed in a blinded fashion. […] In no samples was there evidence of significant bone erosion. Samples of serum and synovial fluid were thawed on the day of ELISA analysis for TNFα and IL-6 levels. Concentrations were determined from a standard curve, using an ELISA as described previously in Example 6.

dermal Arthus reaction = experiment: Reverse passive dermal Arthus reaction in the rat; assay type: in vivo; settings: intravenous, oral and topical
[2] = Plasma levels after topical dermal administration; assay type: in vivo, rat; settings: dermal application, 50 mg/kg, DMSO/distilled H2O or PG/H2O
Protocol: Female and male Wistar rats (200-250 g) were anaesthetized with 1 mL of zoletil (50 mg/kg) and xylazine (10 mg/kg; Lyppard, Australia), which was injected intraperitoneally. An area of 5×10 cm was shaved and marked on the lower abdominal area of the rat, on to which the dose of drug was applied. A stock solution containing 10 mg/ml of C5a antagonist was dissolved in solvents propylene glycol or dimethylsulfoxide at varying concentrations with water and smeared evenly on the shaved abdominal area of the rat with a spatula. A heating pad was used to maintain the body temperature of the rats and blood samoles were taken at 15 min intervals for the first hour, and after that at 1 hr intervals for a total period or 3 hours.
Blood samples were immediately added to tubes containing heparin (500 Units/μL) and centrifuged (11000×g). […] The fluid portions of the samples were placed in 1 mL Eppendorf tubes and stored until analysed.
These samples were transferred to 96 well plates and evaporated to dryness using a GeneVac centrifugal evaporator, then reconstituted in the wells with mobile phase (20 μL) Analysis of samples was performed by liquid chromatography (LCMS) using an Agilent 1100 series HPLC equipped with a well plate autosampler coupled with a PE Sciex Qstar Pulsar ESI-TOF mass spectrometer. Concentrations were determined from a standard curve of drug:internal standard peak area ratios. […]

## CC(=O)N[C@@H](Cc1ccccc1)C(=O)N[C@H]1CCCNC(=O)[C@H](CCCNC(=N)N)NC(=O)[C@H](Cc2c[nH]c3ccccc23)NC(=O)[C@@H](CC2CCCCC2)NC(=O)[C@@H]2CCCN2C1=O [Compound 1, Ac-Phe-[Orn-Pro-dCha-Trp-Arg]]
Gut ischemia-reperfusion; 1 mg/kg i.v. and 10 mg/kg p.o.
  ischemia-reperfusion induced neutropenia: significantly inhibited
Gut ischemia-reperfusion; 1 mg/kg i.v. and 1,10 mg/kg
  gut ischemia-reperfusion induced plasma aspartate aminotransferase: significantly reduced
  gut ischemia-reperfusion induced tissue damage (histopathology): significantly reduced
Gut ischemia-reperfusion; 1 mg/kg i.v. and 1,10 mg/kg p.o.
  increase in serum haptoglobin levels: significantly inhibited
Gut ischemia-reperfusion; 1 mg/kg i.v. and 1-10 mg/kg p.o.
  change in serum TNF-α levels: completely inhibited
Gut ischemia-reperfusion; 1 mg/kg p.o.
  ischemia-reperfusion induced neutropenia: no inhibition
[1]; given orally on Days −2 to +14
  arthritic right knee joint swelling: inhibition
[1]; oral
  right knee joint IL-6 levels in joint lavage: inhibition
  right knee joint TNF-α levels in joint lavage: inhibition
Dermal Arthus reaction; FIG. 1
  vascular leakage associated with a dermal Arthus reaction: inhibition
Dermal Arthus reaction; FIG. 2
  rise in circulating TNFα associated with a dermal Arthus reaction: inhibition
[2]
  appearance of the C5a antagonist in the circulating plasma: ≤ 15 min
  persistence of significant plasma levels: at least 4 hr
